Laboratory results published in patent US8940757B2, “Prasugrel in micronized, crystalline form and pharmaceutical composition thereof” (ratiopharm GmbH, priority 2010, dated 2015).
Converted amounts (≈) assume the structure as drawn.

Tests used:
pH-dependent degradation = assay type: physicochemical; conditions: pH values of <3, after 2 hours
Protocol: In addition, Prasugrel also has a strongly pH-dependent degradation. With pH values of <3 a degradation of more than 1% is observed already after 2 hours. This limits the potential excipients in the preparation of pharmaceutical formulations.

Solubility in water = assay type: physicochemical; conditions: free base
Protocol: Prasugrel is administered orally as platelet aggregation inhibitor. The problem here is that Prasugrel is a sparingly soluble active ingredient.

SMILES: CC(=O)Oc1cc2c(s1)CCN(C(C(=O)C1CC1)c1ccccc1F)C2 (stereo not drawn) [Prasugrel, 2-acetoxy-5-(α-cyclopropylcarbonyl-2-fluorobenzyl)-4,5,6,7-tetrahydrothieno[3,2-c]pyridine]
- degradation (pH-dependent degradation): more than 1%
- solubility (Solubility in water): 57 µg/mL (≈ 153 µM)
